Measurements taken from patent publication US8658661B2, “Oxadiazole inhibitors of leukotriene production” (Boehringer Ingelheim International GmbH, priority 2010, dated 2014).

Experiments:
[1] = biological target: T1, recombinant human FLAP protein (Homo sapiens, UniProt P20292); experiment: FLAP binding assay (SPA, displacement of [125I]L-691,831); details: membranes of sf9 cells expressing recombinant human FLAP; [125I]L-691,831 probe; read-out: FLAP binding IC50
T1 construct: made in house; host or cells: Sf9 insect cells (100,000×g membrane pellet used)
T1 sequence (P20292 1-161): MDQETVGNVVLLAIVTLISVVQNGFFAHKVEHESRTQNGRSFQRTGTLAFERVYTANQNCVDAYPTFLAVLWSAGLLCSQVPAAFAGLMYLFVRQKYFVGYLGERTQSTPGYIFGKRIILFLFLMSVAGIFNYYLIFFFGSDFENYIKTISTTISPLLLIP
Summary of the method: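 Membranes from sf9 cells expressing human FLAP in pH 7.5 Tris buffer (MgCl2, EDTA, PMSF). Non-specific binding defined with 10 μM cold L-691,831.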

[2] = system: synthesis of LTB4 in human whole blood; experiment: Human whole blood assay (inhibition of LTB4 synthesis, calcimycin stimulated); type: cell-based; details: heparinized human whole blood, calcimycin 20 μM, plasma LTB4
Summary of the method: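 Steps: compound plus heparinized human whole blood, 15 min at 37° C; add calcimycin to 20 μM final; incubate another 30 min at 37° C; centrifuge at low speed and collect plasma; measure LTB4 with a homogeneous time-resolved fluorescence immunoassay.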

| Structure (SMILES) | IC50 [1] | IC50 [2] |
| --- | --- | --- |
| CC(C)C(C)(c1ccc(-c2cnc(N)nc2)cc1)c1noc(-c2c[nH]cn2)n1 (centres unmarked) [Example 126, 5-(4-{2-[5-(1H-imidazol-4-yl)-1,2,4-oxadiazol-3-yl]-3-methylbutan-2-yl}phenyl)pyrimidin-2-amine] | 4.6 nM | 260 nM |
| CC(C)C(C)(c1ccc(-c2cnc(N)nc2)cc1)c1noc(-c2cncc3ccccc23)n1 (centres unmarked) [Example 127, 5-(4-{2-[5-(isoquinolin-4-yl)-1,2,4-oxadiazol-3-yl]-3-methylbutan-2-yl}phenyl)pyrimidin-2-amine] | 2.9 nM | 650 nM |
| CC(C)C(C)(c1ccc(-c2cnc(N)nc2)cc1)c1noc(-c2cnco2)n1 (centres unmarked) [Example 132, 5-(4-{3-methyl-2-[5-(1,3-oxazol-5-yl)-1,2,4-oxadiazol-3-yl]butan-2-yl}phenyl)pyrimidin-2-amine] | 2.8 nM | 330 nM |
| CCNc1nc(C(C)(c2ccc(-c3cnc(N)nc3)cc2)C(C)C)no1 (centres unmarked) [Example 134, 5-(4-{2-[5-(ethylamino)-1,2,4-oxadiazol-3-yl]-3-methylbutan-2-yl}phenyl)pyrimidin-2-amine] | 8.3 nM | 190 nM |
| CC(C)C(C)(c1ccc(-c2cnc(N)nc2)cc1)c1noc(-c2ccc(C(F)(F)F)nc2)n1 (centres unmarked) [Example 136, 5-[4-(3-methyl-2-{5-[6-(trifluoromethyl)pyridin-3-yl]-1,2,4-oxadiazol-3-yl}butan-2-yl)phenyl]pyrimidin-2-amine] | 5.4 nM | 320 nM |
| CC(C)C(C)(c1ccc(-c2cnc(N)nc2)cc1)c1noc(-c2cnccn2)n1 (centres unmarked) [Example 137, 5-(4-{3-methyl-2-[5-(pyrazin-2-yl)-1,2,4-oxadiazol-3-yl]butan-2-yl}phenyl)pyrimidin-2-amine] | 2.8 nM | 77 nM |

Compounds with a lower IC50 [1], results first:

| IC50 [1] | IC50 [2] | Structure (SMILES) |
| --- | --- | --- |
| 2.3 nM | 31 nM | COCCNc1cnc(-c2nc([C@](C)(c3ccc(-c4cnc(N)nc4)cc3)C(C)C)no2)cn1 [Example 124, 5-{4-[(2S)-2-(5-{5-[(2-methoxyethyl)amino]pyrazin-2-yl} 1,2,4-oxadiazol-3-yl)-3-methylbutan-2-yl]phenyl}pyrimidin-2-amine] |
| 1.5 nM | 290 nM | CC(C)C(C)(c1ccc(-c2cnc(N)nc2)cc1)c1noc(-c2ccc(C(N)=O)nc2)n1 (centres unmarked) [Example 125, 5-(3-{2-[4-(2-aminopyrimidin-5-yl)phenyl]-3-methylbutan-2-yl}-1,2,4-oxadiazol-5-yl)pyridine-2-carboxamide] |
| 1.6 nM | 240 nM | CC(C)C(C)(c1ccc(-c2cnc(N)nc2)cc1)c1noc(-c2ccc(C#N)nc2)n1 (centres unmarked) [Example 128, 5-(3-{2-[4-(2-aminopyrimidin-5-yl)phenyl]-3-methylbutan-2-yl}-1,2,4-oxadiazol-5-yl)pyridine-2-carbonitrile] |
| 2 nM | 180 nM | CC(C)C(C)(c1ccc(-c2cnc(N)nc2)cc1)c1noc(-c2cncnc2)n1 (centres unmarked) [Example 129, 5-(4-{3-methyl-2-[5-(pyrimidin-5-yl)-1,2,4-oxadiazol-3-yl]butan-2-yl}phenyl)pyrimidin-2-amine] |
| 1.4 nM | 180 nM | CC(C)C(C)(c1ccc(-c2cnc(N)nc2)cc1)c1noc(-c2cncs2)n1 (centres unmarked) [Example 130, 5-(4-{3-methyl-2-[5-(1,3-thiazol-5-yl)-1,2,4-oxadiazol-3-yl]butan-2-yl}phenyl)pyrimidin-2-amine] |
| 1.6 nM | 190 nM | Cc1n[nH]c(C)c1-c1nc(C(C)(c2ccc(-c3cnc(N)nc3)cc2)C(C)C)no1 (centres unmarked) [Example 133, 5-(4-{2-[5-(3,5-dimethyl-1H-pyrazol-4-yl)-1,2,4-oxadiazol-3-yl]-3-methylbutan-2-yl}phenyl)pyrimidin-2-amine] |
| 1.4 nM | 250 nM | CC(C)C(C)(c1ccc(-c2cnc(N)nc2)cc1)c1noc(-c2ccc(N3CCOCC3)nc2)n1 (centres unmarked) [Example 135, 5-[4-(3-methyl-2-{5-[6-(morpholin-4-yl)pyridin-3-yl]-1,2,4-oxadiazol-3-yl}butan-2-yl)phenyl]pyrimidin-2-amine] |
